# Measurements reported in patent US8912136B2, “Methods and compositions related to clot-binding compounds” (Sanford-Burnham Medical Research Institute, priority 2009, dated 2014).
# Where no end group is shown, it is not given here. [ ]: non-standard residue; d: D form. NMeR = CN[C@@H](CCCNC(=N)N)C(=O)O; αMeR = C[C@](N)(CCCNC(=N)N)C(=O)O; NMeE = CN[C@@H](CCC(=O)O)C(=O)O; αMeE = C[C@](N)(CCC(=O)O)C(=O)O
# Assays:
# [1] = system: orthotopic 22Rv1 xenograft tumors; assay: In vivo homing of FAM-labeled CREKA and methylated CREKA peptides; set-up: species or system mouse; settings: for tumor fluorescence compared to unmodified CREKA: 200 μg FAM-conjugated peptide, 3 hrs, Image J
# Method: Tumor accumulation of CREKA peptide and its N-methylated and C-methylated variants. The accumulation of N-methylated and C-methylated derivatives of CREKA was measured in mice bearing orthotropic 22Rv-1 xenograft tumors. The mice were intravenously injected with 200 μg of FAM-conjugated CREKA or methylated CREKA peptides derivatives. The peptides were allowed to circulate for 3 hrs. The mice were then perfused through the heart with PBS, and organs were collected and the fluorescence was measured under UV light. The fluorescence was analyzed with Image J software. Most N/C-methylated CREKA analogs produced stronger fluorescence compared to the unmodified CREKA. […] In FIG. 10B the enhanced fluorescence of CR(NMe)EKA is shown in the tumor compared to both CREKA and C(NMe)REKA peptide. It is shown that FAM-labeled CREKA peptide in which the glutamic acid is N-methylated accumulates in tumor tissue more strongly than unmodified CREKA.
# Orthotopic prostate cancers were used when they reached 0.5-1 cm in size. Synthetic peptides labeled with fluorescein (approximately 200 μg) were intravenously injected into tumor-bearing mice and allowed to circulate for 15 minutes to 3 hours. The mice were perfused with PBS through the heart under anesthesia, and tissues were collected and observed under UV light (Illumatool Bright Light System LT-9900, Lightools Research, Encinitas, Calif.), and then processed for immunofluorescence or immunohistochemistry.
# [2] = system: MDA-MB-435 human breast cancer xenograft tumors; assay: Nanoparticle/liposome tumor homing and clotting in tumor vessels; format: in vivo, mouse
# Method: Nanoparticle injections. For intravenous injections, the animals were anesthetized with intraperitoneal Avertin, and liposomes (2 μmol DSPC) and/or nanoparticles (1-4 mg Fe/kg body weight) were injected into the tail vein. The animals were sacrificed 5-24 h post-injection by cardiac perfusion with PBS under anesthesia, and organs were dissected and analyzed for particle homing. To suppress liver macrophages, mice were intravenously injected with liposomal clodronate suspension (100 μl per mouse), and the mice were used for experiments 24 hours later.
# Intravital microscopy. Tumor blood flow in MDA-MB 435 xenograft-bearing mice was observed by intravital microscopy. Mice were pre-injected with Ni-liposomes and 5×10^8 of DiI-labeled erythrocytes. A skin flap was moved aside to expose the tumors, and the mice were intravenously injected with 4 mg/kg of fluorescein-CREKA-SPIO (time “0”). The tumors were scanned with IV-100 intravital laser scanning microscope (Olympus Corp., Tokyo, Japan) using an IV-OB35F22W29 MicroProbe objective (Olympus Corp., Tokyo, Japan). Movies were recorded at 10 min intervals up to 120 min post-injection.
# Magnetic measurements of the tissue samples using Superconducting Quantum Interference Device (SQUID) magnetometer. Tissue samples were frozen immediately upon collection, lyophilized, weighed, and placed in gelatin capsules. The capsules were inserted into the middle of transparent plastic straws for magnetic measurements made using a Quantum Design MPMS2 SQUID magnetometer (San Diego, Calif.) operated at 150 K. The samples were exposed to direct current magnetic fields in stepwise increments up to one Tesla. Corrections were made for the diamagnetic contribution of tissue, capsule and straw.
# [3] = system: 22Rv1 orthotopic human prostate cancer tumors; assay: Homing and clotting of peptide-coated iron oxide nanoworms/SPIO; format: in vivo, mouse; settings: intravenous, Example 2
# Method: To analyze NW biodistribution, mice bearing orthotopic 22Rv1 tumors were injected into the tail vein (5 mg of iron per kg body weight). In homing experiments, the mice were euthanized 5-6 hours after the injection by cardiac perfusion with PBS under anesthesia, and organs were dissected and analyzed for particle homing. In tumor treatment experiments, nude mice bearing 2 week-old 22Rv-1 or LAPC9 orthotopic xenografts (typically about 200-250 mm^3 in tumor volume) were intravenously injected with NW in 150 μl PBS or PBS as a control. The NW were injected every other day for 14 days. The total cumulative dose was 35 mg iron/kg. At the end of the treatment, the mice were perfused with PBS under anesthesia, and the tumors were harvested. Tumor volume was calculated using the following formula: volume (mm3)=(d2×D)/2, where d and D are the smallest and largest tumor diameters, respectively. […] The primary antibodies were detected with Alexa 647 goat anti-rat, and 647 donkey anti-goat secondary antibodies (1:1000; Molecular Probes, Eugene, Oreg.). […] The primary antibody was detected with biotinylated anti-mouse IgG and Vectastain ABC kit (Vector Laboratories, Burlingame, Calif.). […] To quantify the homing area of fibrin(ogen) within tumors the stained section were scanned with the Scanscope CM-1 scanner and analyzed with the ImageScope software41 (Aperio Technologies, Vista, Calif.).
# mouse plasma clots = assay: Nanoparticle binding to plasma clots in vitro
# Method: (§1) Phage and nanoparticle binding to clots. Phage binding to clotted plasma proteins was determined as described (Pilch 2006). CREKA-SPIO and control SPIO were added to freshly formed plasma clots in the presence or absence of free CREKA peptide. After 10 min incubation, the clots were washed 4 times in PBS, transferred to a new tube and digested in 100 μl concentrated nitric acid. The digested material was diluted in 2 ml distilled water and the iron concentration was determined using inductively coupled plasma-optical emission spectroscopy (ICP-OES, PerkinElmer, Norwalk, Conn.).
# human plasma clots = assay: Nanoparticle binding to plasma clots in vitro
# Method: as §1
# [4] = Nanoparticle clearance (blood half-life); format: in vivo, mouse
# Method: Nanoparticle injections. For intravenous injections, the animals were anesthetized with intraperitoneal Avertin, and liposomes (2 μmol DSPC) and/or nanoparticles (1-4 mg Fe/kg body weight) were injected into the tail vein. The animals were sacrificed 5-24 h post-injection by cardiac perfusion with PBS under anesthesia, and organs were dissected and analyzed for particle homing. To suppress liver macrophages, mice were intravenously injected with liposomal clodronate suspension (100 μl per mouse), and the mice were used for experiments 24 hours later. Nanoparticle clearance. Heparinized capillaries were used to draw 50 μA of blood from the periorbital plexus at different times after nanoparticle injection, the blood was centrifuged at 300 g for 2 min, and a 10 μA aliquot of platelet-rich plasma was diluted into 600 μl 1M Tris solution, pH 8.4. Fluorescence was determined on a PerkinElmer (Norwalk, Conn.) LS50B spectrofluorometer, and plotted as a function of the time the particles had circulated.
# [5] = intravenous, no decoy pretreatment
substance,measurement,setting,value
C(NMe)REKA: CREKA analog in which the arginine residue is N-methylated (C[NMeR]EKA),tumor fluorescence compared to unmodified CREKA,[1],did not show an enhanced fluorescence
same,tumor accumulation / fluorescence of CREKA analogs,"[1]; FAM-labeled peptides, Example 3",only weak tumor fluorescence
CR(CMe)EKA: Cα-methylated CREKA analog (C[αMeR]EKA),tumor fluorescence compared to unmodified CREKA,[1],significantly more fluorescence
CR(NMe)E(NMe)KA: doubly N-methylated CREKA analog (C[NMeR][NMeE]KA),tumor fluorescence compared to unmodified CREKA,[1],significantly more fluorescence
CRE(CMe)KA: Cα-methylated CREKA analog (CR[αMeE]KA),tumor fluorescence compared to unmodified CREKA,[1],significantly more fluorescence
same,accumulation in areas rich in fibrin(ogen) and fibronectin,[1]; confocal microscopy of tumor sections,equally active
CRE(NMe)KA: N-methylated CREKA analog (CR[NMeE]KA),tumor fluorescence compared to unmodified CREKA,[1],significantly more fluorescence
CREKA-SPIO: fluorescein-labeled CREKA coupled onto 50 nm superparamagnetic amino dextran-coated iron oxide nanoparticles (not fully specified (N-terminus); also: conjugated to dextran-coated superparamagnetic iron oxide nanoparticles (SPIO)),whole-body scan tumor signal,"[2]; Cy7-labeled, near infrared",effectively accumulated in tumors
same,intravital confocal microscopy of tumor blood vessels,"[2]; DiI-labeled erythrocytes as flow marker, 4 mg/kg",time-dependent clot formation and obstruction of blood flow
same,accumulation in Ni-liposome-pretreated compared to PBS-pretreated mice,[2]; SQUID tumor magnetization and fluorescence signal,about 6 fold
same,reduction of tumor accumulation by heparin,"[2]; SQUID, heparin prior to injection",more than 50%
same,tumor vessel lumens filled with fluorescent masses (occlusion),[2]; after liposome pretreatment,up to 20%
same,effect of thrombocytopenia on homing,[2]; anti-CD41 monoclonal antibody,no noticeable effect
same,heparin effect on intravascular clotting,[2]; heparin pretreatment,essentially eliminated
same,heparin effect on number of vessels with nanoparticles bound to the vessel walls,[2]; heparin pretreatment,did not significantly reduce
same,accumulation in tumor,[2]; [5],did not accumulate effectively
same,particles in reticuloendothelial system (RES) tissues,[2]; [5],high concentration of particles
same,tumor homing after Ni-liposome pretreatment,[2]; pretreatment 5 min or 48 h prior,greatly increased the tumor homing
same,localization of nanoparticle-induced clotting,"[2]; tumor versus kidneys, lungs, liver",essentially confined to tumor vessels
same,tumor homing,[3],effectively home to 22Rv-1 tumors
same,binding to plasma clots,mouse plasma clots,bound to mouse and human plasma clots
same,binding to plasma clots,human plasma clots,bound to mouse and human plasma clots
same,prolongation in particle half-life,[4]; after depleting RES macrophages with liposomal clodronate,~5 fold
same,blood half-life and tumor homing after decoy particles,[4]; plain liposomes as decoy particles,prolonged the blood half-life
